Measurements reported in patent US12297285B2 (Orna Therapeutics, Inc., priority 2022, dated 2025).

What was measured:
Assay in all cases: IRES screening, Gaussia luciferase from LNP-oRNA (Table 27)
Conditions in all cases: Gaussia luciferase luminescence in supernatant 48 hours after LNP-oRNA transfection, normalized to control (caprine kobuvirus IRES)
[1] = tested on: activated primary human T cells
[2] = tested on: primary human skeletal myotubes
[3] = tested on: primary human hepatocytes

Row | SMILES | [Mod] T Fold Change [1] | [Mod] Fold Change Myo [2] | [Mod] PHH Fold Change [3]
1 | CCCCC(C)CCC(=O)OCCCCCCC(CCCCCCOC(=O)CCC(C)CCCC)OC(=O)CCCn1ccnc1 (stereo not drawn) [Lipid 10a-113] | 0.4373 Fold Change | 0.3171 Fold Change | 0.8279 Fold Change
2 | CCCCC(C)CCC(=O)OCCCCCCN(CCCCCCOC(=O)CCC(C)CCCC)CCCn1ccnc1C (stereo not drawn) [Lipid 10a-114] | 0.06812 Fold Change | 0.05835 Fold Change | 0.7898 Fold Change
3 | CCCCC(C)CCC(=O)OCCCCCCC(CCCCCCOC(=O)CCC(C)CCCC)OC(=O)CCCn1ccnc1C (stereo not drawn) [Lipid 10a-115] | 0.04693 Fold Change | 0.05074 Fold Change | 0.425 Fold Change
4 | CC(C)CCCC(C)CC(=O)OCCCCCCC(CCCCCCOC(=O)CC(C)CCCC(C)C)OC(=O)CCCn1ccnc1 (stereo not drawn) [Lipid 10a-116] | 0.03074 Fold Change | 0.03921 Fold Change | 0.5299 Fold Change
5 | Cc1nccn1CCCC(=O)OC(CCCCCCOC(=O)CC(C)CCCC(C)C)CCCCCCOC(=O)CC(C)CCCC(C)C (stereo not drawn) [Lipid 10a-117] | 0.04612 Fold Change | 0.04273 Fold Change | 0.4258 Fold Change
6 | CC(C)=CCCC(C)CC(=O)OCCCCCCC(CCCCCCOC(=O)CC(C)CCC=C(C)C)OC(=O)CCCn1ccnc1 (stereo not drawn) [Lipid 10a-118] | 0.4562 Fold Change | 0.1546 Fold Change | 0.6669 Fold Change
7 | CC(C)=CCCC(C)CC(=O)OCCCCCCC(CCCCCCOC(=O)CC(C)CCC=C(C)C)OC(=O)CCCn1ccnc1C (stereo not drawn) [Lipid 10a-119] | 0.9876 Fold Change | 0.198 Fold Change | 0.6212 Fold Change
8 | CC(C)=CCC/C(C)=C/C(=O)OCCCCCCC(CCCCCCOC(=O)/C=C(\C)CCC=C(C)C)OC(=O)CCCn1ccnc1 (stereo not drawn) [Lipid 10a-120] | 0.7019 Fold Change | 0.2755 Fold Change | 0.4893 Fold Change
9 | CC(C)=CCC/C(C)=C/C(=O)OCCCCCCC(CCCCCCOC(=O)/C=C(\C)CCC=C(C)C)OC(=O)CCCn1ccnc1C (stereo not drawn) [Lipid 10a-121] | 1.029 Fold Change | 0.6276 Fold Change | 0.9977 Fold Change
10 | CC(C)CCCC(C)CC(=O)OCCCCCCN(CCCCCCOC(=O)CC(C)CCCC(C)C)CCCn1ccnc1 (stereo not drawn) [Lipid 10a-122] | 0.8876 Fold Change | 0.3886 Fold Change | 0.8322 Fold Change
11 | Cc1nccn1CCCN(CCCCCCOC(=O)CC(C)CCCC(C)C)CCCCCCOC(=O)CC(C)CCCC(C)C (stereo not drawn) [Lipid 10a-123] | 0.03011 Fold Change | 0.03971 Fold Change | 0.638 Fold Change
12 | CC(C)=CCCC(C)CC(=O)OCCCCCCN(CCCCCCOC(=O)CC(C)CCC=C(C)C)CCCn1ccnc1C (stereo not drawn) [Lipid 10a-125] | 0.6418 Fold Change | 0.3827 Fold Change | 0.6492 Fold Change
13 | CC(C)=CCC/C(C)=C/C(=O)OCCCCCCN(CCCCCCOC(=O)/C=C(\C)CCC=C(C)C)CCCn1ccnc1 [Lipid 10a-126] | 0.06647 Fold Change | 0.05793 Fold Change | 0.6456 Fold Change
14 | CC(C)=CCC/C(C)=C/C(=O)OCCCCCCN(CCCCCCOC(=O)/C=C(\C)CCC=C(C)C)CCCn1ccnc1C [Lipid 10a-127] | 0.6858 Fold Change | 0.2936 Fold Change | 0.6745 Fold Change
15 | CCCCCCCCC(CCCCCC)C(=O)OCCCCCCN(CCCCCCOC(=O)C(CCCCCC)CCCCCCCC)Cc1nccn1C (stereo not drawn) [Lipid 10a-128] | 0.5837 Fold Change | 0.4893 Fold Change | 1.021 Fold Change
16 | CCCCCCCCC(CCCCCC)C(=O)OCCCCCCN(CCCCCCOC(=O)C(CCCCCC)CCCCCCCC)CCn1ccnc1 (stereo not drawn) [Lipid 10a-129] | 0.08945 Fold Change | 0.05369 Fold Change | 0.6689 Fold Change
17 | CCCCCCCCC(CCCCCC)C(=O)OCCCCCCN(CCCCCCOC(=O)C(CCCCCC)CCCCCCCC)CCC(C)n1ccnc1 (stereo not drawn) [Lipid 10a-130] | 0.06076 Fold Change | 0.04058 Fold Change | 0.5728 Fold Change
18 | CCCCCCCCCOC(=O)CCCCCCCN(CCCCCCCC(=O)OC(CCCCCCCC)CCCCCCCC)CCC(C)n1ccnc1 (stereo not drawn) [Lipid 10a-131] | 0.03336 Fold Change | 0.03951 Fold Change | 0.5348 Fold Change
19 | CCCCCCCCCOC(=O)CCCCCCCN(CCCCCCCC(=O)OC(CCCCCCCC)CCCCCCCC)CCn1ccnc1 [Lipid 10a-132] | 0.03118 Fold Change | 0.03998 Fold Change | 0.5643 Fold Change
20 | CCCCCCCCCOC(=O)CCCCCCCN(CCCCCCCC(=O)OC(CCCCCCCC)CCCCCCCC)Cc1nccn1C [Lipid 10a-133] | 0.03004 Fold Change | 0.03933 Fold Change | 0.541 Fold Change
21 | CCCCCCCCCCCCCCN(CCC(C)n1ccnc1)C(CCCCCCCCC(=O)OCC(CCCC)CCCCCC)CCCCCCCCC(=O)OCC(CCCC)CCCCCC (stereo not drawn) [Lipid 10a-134] | 0.05294 Fold Change | 0.04662 Fold Change | 0.4673 Fold Change
22 | CCCCCCCCCCCCCCN(Cc1nccn1C)C(CCCCCCCCC(=O)OCC(CCCC)CCCCCC)CCCCCCCCC(=O)OCC(CCCC)CCCCCC (stereo not drawn) [Lipid 10a-136] | 0.04232 Fold Change | 0.04786 Fold Change | 0.4286 Fold Change
23 | CCCCCCCCC(CC)OC(=O)CCCCCCCN(CCCCCCCC(=O)OC(CCCCCCCC)CCCCCCCC)CCCn1ccnc1C (stereo not drawn) [Lipid 10a-138] | 0.6378 Fold Change | 0.3723 Fold Change | 0.6157 Fold Change
24 | CCCCCCCCC(CCCCCC)C(=O)OCCCCCCN(CCCCCCOC(=O)C(CCCCCC)CCCCCCCC)CCn1ccnc1C (stereo not drawn) [Lipid 10a-139] | 0.09732 Fold Change | 0.0597 Fold Change | 0.5206 Fold Change
25 | CCCCC/C=C\C/C=C\CCCCCCCC(=O)OCC(COC(=O)CCC(OCCCCCCCC)OCCCCCCCC)COC(=O)OCCCn1ccnc1 (stereo not drawn) [Lipid 10a-140] | 0.3995 Fold Change | 0.1601 Fold Change | 0.7154 Fold Change
26 | CCCCC/C=C\C/C=C\CCCCCCCC(=O)OCC(COC(=O)CCC(OCCCCCCCC)OCCCCCCCC)COC(=O)OCCCn1ccnc1C (stereo not drawn) [Lipid 10a-141] | 0.03106 Fold Change | 0.04025 Fold Change | 0.547 Fold Change
27 | CCCCCCCCCN(CCCn1ccnc1)C(CCCCCCCCC(=O)OCC(CCCC)CCCCCC)CCCCCCCCC(=O)OCC(CCCC)CCCCCC (stereo not drawn) [Lipid 10a-142] | 0.02743 Fold Change | 0.03852 Fold Change | 0.468 Fold Change
